The values that follow come from patent publication US11248018B2, “Process for preparation of nicotinamide riboside (NR) and cosmetic composition comprising (NR and a phosphate-binding agent” (YISSUM RESEARCH DEVELOPMENT COMPANY OF THE HEBREW …, priority 2016, dated 2022).

Format in all cases: physicochemical
Data set [1] is described as follows: Stability of commercial NR product under hydrolytic conditions in deionized water, followed by NMR. The method, then: Additionally, to establish the stability of the commercial NR product (Niagen® purchased from ChromaDex) under hydrolytic conditions, it was dissolved in deionized water as described herein and the mixture was analyzed every 3 hours using ^1H- and ^31P-NMR.

The nature of data set [2]: Hydrolysis of NAD^+ with phosphate binding agent (calcium L-ascorbate) alone in water at 80° C. (Example 3), concentrations over time. To be noted: for Relative Concentration: Example 3, calcium L-ascorbate alone, 80° C. The method, then:
In a 250-ml flask, a mixture of NAD^+ (0.34 gr) and 1.8 gr of calcium L-ascorbate in 100 ml of deionized water was heated to 80° C. for 4 days. The mixture was analyzed every 3 hours using HPLC and ^31P-NMR.
The rate of the tertiary hydrolysis (decomposition of the NR) is slower. Under these conditions, the concentration of the NR remains essentially stable (˜10% decline) over 24 hours (steady-state). The concentration was determined by comparing the abundance of the desired peak to the abundance of the internal standard MS and ^1H- and ^31P-NMR (intensity of the signal). After this time the concentration of the NR decreased and the product was no longer present.

Data set [3] can be described thus: One-stage hydrolysis of NAD^+ with ZrCl4 and calcium L-ascorbate in water at 80° C. (Example 2), concentrations over time. Conditions: for Relative Concentration: Example 2, ZrCl4 + calcium L-ascorbate, 80° C. Here is the method:
NMR spectra were recorded with 400 MHz Bruker spectrometer. Reversed phase HPLC column of RP-18 type (Chromolith performance RP18e (100-4.6 mm) UM8 086/001, Merck KGaA) using deionized HPLC-grade solvents in the following composition: 1% acetonitrile, 99% water. Flow rate was 0.1 mL/min, detection performed with UV detector at 260 nm. Mass Spectrometry (MS), 6200 series TOF/6500 series Q-TOF B.05.01 (B5125.1).
In a 250-ml flask, a mixture of NAD^+ (0.33 gr), ZrCl4 (0.58 gr) and 1.80 gr of calcium L-ascorbate in 100 ml of deionized water was heated to 80° C. for 2 days. Over this time period, full conversion of the NAD^+ was observed by HPLC. Decomposition of the desired NR product was also observed under these conditions, but to a lower extent in comparison with the process of Example 1. HR-MS spectrum of the product is MW of 255.10. The extent of the decomposition of the desired NR was determined by comparing the abundance of the desired peak to the abundance of the internal standard.

As for `NC(=O)c1ccc[n+]([C@@H]2O[C@H](CO)[C@@H](O)[C@H]2O)c1` [NR (Niagen ®), Nicotinamide riboside], in data set [1] (after 24 hours), the “NR peak at 6.15 ppm in 1H-NMR versus DMF internal standard” value is “NR has degraded”. For the same compound, the Relative Concentration is 1 in data set [1] (time 0.5 hours); 0.62 in data set [1] (time 3 hours); 0.48 in data set [1] (time 6 hours); 0.02 in data set [1] (time 24 hours); 0 in data set [1] (time 48 hours).
Regarding `NC(=O)c1ccc[n+]([C@@H]2O[C@H](CO)[C@@H](O)[C@H]2O)c1` [NR, 1-(β-D-Ribofuranosyl)-nicotinamide], the “Relative Concentration” value in data set [2] (time 0 hours) came to 0; in data set [2] (time 0.5 hours) it was 0.06; in data set [2] (time 6 hours), 0.11; in data set [2] (time 16 hours), 0.09; in data set [2] (time 24 hours), 0.08; in data set [2] (time 36 hours), 0.01. The “Relative Concentration” value is 0 in data set [2] (time 48 hours); 0 in data set [3] (time 0 hours); 0.05 in data set [3] (time 0.5 hours); 0.06 in data set [3] (time 6 hours); 0.02 in data set [3] (time 16 hours); 0 in data set [3] (time 24 hours). Moreover, in data set [2] (over 24 hours (steady-state), Example 3), the “decline of NR concentration” value is listed as about 10%. Also, the “time the concentration of the product remains stable (decline of no more than 10%)” value in data set [2] (solution from degrading NAD^+ with phosphate-binding agent alone, absence of ZrCl4) is “at least 24 hours”. Moreover, the “stability of the NR concentrations” value in data set [3] (NR-containing aqueous solution, ZrCl4 with phosphate-binding agent added concurrently) is “about 6 hours”.
With `NC(=O)C1=CN([C@@H]2O[C@H](COP(=O)(O)OP(=O)(O)OC[C@H]3O[C@@H](n4cnc5c(N)ncnc54)[C@H](O)[C@@H]3O)[C@@H](O)[C@H]2O)C=CC1` [NAD^+, β-nicotinamide adenine dinucleotide], the “Relative Concentration” value is listed as 1 in data set [2] (time 0 hours); 0.86 in data set [2] (time 0.5 hours); 0.62 in data set [2] (time 6 hours); 0.55 in data set [2] (time 16 hours); 0.38 in data set [2] (time 24 hours); 0.22 in data set [2] (time 36 hours). In addition, the “Relative Concentration” value in data set [2] (time 48 hours) is listed as 0.2; in data set [3] (time 0 hours), 1; in data set [3] (time 0.5 hours), 0.66; in data set [3] (time 6 hours) it was 0.32; in data set [3] (time 16 hours) it was 0.05; in data set [3] (time 24 hours), 0.
Take `NC(=O)c1cccnc1` [Nicotinamide, nicotinamide]: the “Relative Concentration” value in data set [2] (time 0 hours) stood at 0; in data set [2] (time 0.5 hours), 0.1; in data set [2] (time 6 hours), 0.16; in data set [2] (time 16 hours) it was 0.32; in data set [2] (time 24 hours) it was 0.48; in data set [2] (time 36 hours) it was 0.41. In addition, the “Relative Concentration” value is given as 0.41 in data set [2] (time 48 hours); 0 in data set [3] (time 0 hours); 0.1 in data set [3] (time 0.5 hours); 0.19 in data set [3] (time 6 hours); 0.32 in data set [3] (time 16 hours); 0.48 in data set [3] (time 24 hours).
